For 28 molecules, IC50 results are on record in patent publication US8592455B2 (priority 2008, dated 2013).

For one assay, the target named is Pim3 kinase (Homo sapiens (Human), UniProt Q86V86). The following applies: read-out: Pim3 IC50.
The next assay deals with Pim1 kinase (Homo sapiens (Human), UniProt P11309). The conditions noted are these: read-out: Pim1 IC50.
Pim1 kinase, sequence (P11309 whole entry): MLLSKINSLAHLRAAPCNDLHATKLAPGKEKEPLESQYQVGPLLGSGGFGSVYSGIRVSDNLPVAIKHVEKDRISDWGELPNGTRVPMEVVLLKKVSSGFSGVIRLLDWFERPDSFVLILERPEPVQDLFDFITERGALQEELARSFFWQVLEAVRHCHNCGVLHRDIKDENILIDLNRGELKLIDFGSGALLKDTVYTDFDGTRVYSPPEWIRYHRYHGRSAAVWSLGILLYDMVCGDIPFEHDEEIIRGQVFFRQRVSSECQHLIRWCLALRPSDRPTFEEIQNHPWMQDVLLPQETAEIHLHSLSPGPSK

Regarding `C[C@@H]1C[C@H](N)C[C@H](c2ccncc2NC(=O)c2nc(-c3c(F)cccc3F)c(F)cc2N)C1` (stereo in doubt) [Example 133, 3-amino-N-(4-(3-amino-5-methylcyclohexyl)pyridin-3-yl)-6-(2,6-difluorophenyl)-5-fluoropicolinamide], the IC50 turned out to be 7 nM at Pim3 kinase and 1 nM on Pim1 kinase.

As to `C[C@H]1C[C@@H](c2ccncc2NC(=O)c2ccc(F)c(-c3c(F)cc(O)cc3F)n2)C[C@@H](N)[C@@H]1O` [Example 4, N-(4-((1R,3R,4R,5S)-3-amino-4-hydroxy-5-methylcyclohexyl)pyridin-3-yl)-6-(2,6-difluoro-4-hydroxyphenyl)-5-fluoropicolinamide], the results for the IC50 on Pim3 kinase and at Pim1 kinase were 2 nM and 1 nM, respectively.

Consider `C[C@H]1C[C@@H](c2ccncc2NC(=O)c2ccc(F)c(-c3cc(O)ccc3F)n2)C[C@@H](N)[C@@H]1O` [Example 5, N-(4-((1R,3R,4R,5S)-3-amino-4-hydroxy-5-methylcyclohexyl)pyridin-3-yl)-5-fluoro-6-(2-fluoro-5-hydroxyphenyl)picolinamide], for which the IC50 on Pim3 kinase amounted to 9 nM; on Pim1 kinase, 3 nM.

As to `N[C@H]1CCC[C@@H](c2ccncc2NC(=O)c2cccc(-c3cc(O)ccc3F)n2)C1` [Example 7, N-(4-((1R,3S)-3-aminocyclohexyl)pyridin-3-yl)-6-(2-fluoro-5-hydroxyphenyl)picolinamide], the results for the half-inhibitory concentration (IC50) on Pim3 kinase and at Pim1 kinase were 2 nM and 1 nM, respectively.

Regarding `N[C@H]1CCC[C@@H](c2ccncc2NC(=O)c2cccc(-c3c(F)cc(O)cc3F)n2)C1` [Example 8, N-(4-((1R,3S)-3-aminocyclohexyl)pyridin-3-yl)-6-(2,6-difluoro-4-hydroxyphenyl)picolinamide], the IC50 at Pim3 kinase came out at 2 nM; at Pim1 kinase, 1 nM.

With `N[C@H]1CCC[C@@H](c2ccncc2NC(=O)c2ccc(F)c(-c3ccc(O)cc3F)n2)C1` [Example 9, N-(4-((1R,3S)-3-aminocyclohexyl)pyridin-3-yl)-5-fluoro-6-(2-fluoro-4-hydroxyphenyl)picolinamide], the results for the IC50 on Pim3 kinase and on Pim1 kinase were 2 nM and 1 nM, respectively.

For the molecule `CC1(C)C[C@H](N)C[C@H](c2ccncc2NC(=O)c2ccc(F)c(-c3ccc(O)cc3F)n2)C1` [Example 10, N-(4-((1R,5R)-5-amino-3,3-dimethylcyclohexyl)pyridin-3-yl)-5-fluoro-6-(2-fluoro-4-hydroxyphenyl)picolinamide], the IC50 was found to be 6 nM at Pim3 kinase and 1 nM on Pim1 kinase.

With `Cc1ccc(F)c(-c2nc(C(=O)Nc3cnccc3[C@H]3C[C@@H](N)CC(C)(C)C3)ccc2F)c1F` [Example 11, N-(4-((1R,5R)-5-amino-3,3-dimethylcyclohexyl)pyridin-3-yl)-6-(2,6-difluoro-3-methylphenyl)-5-fluoropicolinamide], the IC50 on Pim3 kinase stood at 4 nM; at Pim1 kinase, 1 nM.

Regarding `Cc1ccc(F)c(-c2cccc(C(=O)Nc3cnccc3N3C[C@@H](N)[C@H](O)[C@@H](C)C3)n2)c1F` [Example 13, N-(4-((3R,4R,5S)-3-amino-4-hydroxy-5-methylpiperidin-1-yl)pyridin-3-yl)-6-(2,6-difluoro-3-methylphenyl)picolinamide], the results for the IC50 at Pim3 kinase and at Pim1 kinase were 3 nM and 1 nM, respectively.

For `N[C@H]1CCC[C@@H](c2ccncc2NC(=O)c2ccc(F)c(-c3cc(F)cc(F)c3F)n2)C1` [Example 14, N-(4-((1R,3S)-3-aminocyclohexyl)pyridin-3-yl)-5-fluoro-6-(2,3,5-trifluorophenyl)picolinamide], the IC50 on Pim3 kinase is 12 nM; on Pim1 kinase it was 6 nM.

Consider `CCc1ccc(F)c(-c2cccc(C(=O)Nc3cnccc3[C@H]3C[C@@H](N)[C@H](O)[C@@H](C)C3)n2)c1F` [Example 15, N-(4-((1R,3R,4R,5S)-3-amino-4-hydroxy-5-methylcyclohexyl)pyridin-3-yl)-6-(3-ethyl-2,6-difluorophenyl)picolinamide], for which the half-maximal inhibitory concentration (IC50) is 6 nM on Pim3 kinase and 3 nM on Pim1 kinase.

Take `CCc1ccc(F)c(-c2cccc(C(=O)Nc3cnccc3[C@H]3C[C@@H](N)[C@@H](O)[C@@H](C)C3)n2)c1F` [Example 17, N-(4-((1R,3R,4S,5S)-3-amino-4-hydroxy-5-methylcyclohexyl)pyridin-3-yl)-6-(3-ethyl-2,6-difluorophenyl)picolinamide]: the IC50 at Pim3 kinase was 5 nM; on Pim1 kinase, 1 nM.

As for `CCc1ccc(F)c(-c2cccc(C(=O)Nc3cnccc3[C@@H]3CCC[C@H](N)C3)n2)c1F` [Example 19, N-(4-((1R,3S)-3-aminocyclohexyl)pyridin-3-yl)-6-(3-ethyl-2,6-difluorophenyl)picolinamide], the values for the IC50 at Pim3 kinase and at Pim1 kinase were 7 nM and 3 nM, respectively.

On to `Cc1ccc(F)c(-c2nc(C(=O)Nc3cnccc3[C@@H]3CCC[C@H](N)C3)ccc2F)c1F` [Example 20, N-(4-((1R,3S)-3-aminocyclohexyl)pyridin-3-yl)-6-(2,6-difluoro-3-methylphenyl)-5-fluoropicolinamide], for which the IC50 turned out to be 3 nM at Pim3 kinase and 1 nM on Pim1 kinase.

For the molecule `CCc1ccc(F)c(-c2cccc(C(=O)Nc3cnccc3[C@@H]3C[C@H](C)C[C@H](N)C3)n2)c1F` [Example 21, N-(4-((1R,3S,5S)-3-amino-5-methylcyclohexyl)pyridin-3-yl)-6-(3-ethyl-2,6-difluorophenyl)picolinamide], the results for the concentration for half-maximal inhibition (IC50) at Pim3 kinase and on Pim1 kinase were 6 nM and 2 nM, respectively.

For `Cc1ccc(F)c(-c2nc(C(=O)Nc3cnccc3N3C[C@@H](N)[C@H](O)[C@@H](C)C3)ccc2F)c1F` [Example 22, N-(4-((3R,4R,5S)-3-amino-4-hydroxy-5-methylpiperidin-1-yl)pyridin-3-yl)-6-(2,6-difluoro-3-methylphenyl)-5-fluoropicolinamide], the IC50 at Pim3 kinase stood at 3 nM; at Pim1 kinase, 1 nM.

`C[C@H]1CN(c2ccncc2NC(=O)c2cccc(-c3ccccc3F)n2)C[C@@H](N)[C@@H]1O` [Example 23, N-(4-((3R,4R,5S)-3-amino-4-hydroxy-5-methylpiperidin-1-yl)pyridin-3-yl)-6-(2-fluorophenyl)picolinamide]: the IC50 is 3 nM at Pim3 kinase and 2 nM at Pim1 kinase.

For the molecule `C[C@H]1CN(c2ccncc2NC(=O)c2nc(-c3c(F)cccc3F)ccc2F)C[C@@H](N)[C@@H]1O` [Example 24, N-(4-((3R,4R,5S)-3-amino-4-hydroxy-5-methylpiperidin-1-yl)pyridin-3-yl)-6-(2,6-difluorophenyl)-3-fluoropicolinamide], the IC50 at Pim3 kinase and at Pim1 kinase was 1 nM throughout.

Turning to `Cc1ccc(F)c(-c2nc(C(=O)Nc3cnccc3[C@@H]3C[C@H](C)C[C@H](N)C3)ccc2F)c1F` [Example 27, N-(4-((1R,3S,5S)-3-amino-5-methylcyclohexyl)pyridin-3-yl)-6-(2,6-difluoro-3-methylphenyl)-5-fluoropicolinamide], the IC50 worked out at 2 nM on Pim3 kinase and 1 nM on Pim1 kinase.

As to `Cc1ccc(F)c(-c2cccc(C(=O)Nc3cnccc3[C@@H]3CCC[C@H](N)C3)n2)c1F` [Example 28, N-(4-((1R,3S)-3-aminocyclohexyl)pyridin-3-yl)-6-(2,6-difluoro-3-methylphenyl)picolinamide], the results for the IC50 at Pim3 kinase and at Pim1 kinase were 2 nM and 1 nM, respectively.

Turning to `Cc1ccc(F)c(-c2cccc(C(=O)Nc3cnccc3[C@H]3C[C@@H](N)[C@H](O)[C@@H](C)C3)n2)c1F` [Example 30, N-(4-((1R,3R,4R,5S)-3-amino-4-hydroxy-5-methylcyclohexyl)pyridin-3-yl)-6-(2,6-difluoro-3-methylphenyl)picolinamide], the values for the IC50 on Pim3 kinase and on Pim1 kinase were 4 nM and 2 nM, respectively.

Regarding `Cc1ccc(F)c(-c2cccc(C(=O)Nc3cnccc3[C@H]3C[C@@H](N)[C@@H](O)[C@@H](C)C3)n2)c1F` [Example 31, N-(4-((1R,3R,4S,5S)-3-amino-4-hydroxy-5-methylcyclohexyl)pyridin-3-yl)-6-(2,6-difluoro-3-methylphenyl)picolinamide], the values for the IC50 on Pim3 kinase and at Pim1 kinase were 4 nM and 2 nM, respectively.

As to `N[C@H]1CCC[C@@H](c2ccncc2NC(=O)c2ccc(F)c(-c3c(F)cc(O)cc3F)n2)C1` [Example 32, N-(4-((1R,3S)-3-aminocyclohexyl)pyridin-3-yl)-6-(2,6-difluoro-4-hydroxyphenyl)-5-fluoropicolinamide], the results for the IC50 at Pim3 kinase and at Pim1 kinase were 3 nM and 1 nM, respectively.

As for `N[C@H]1CCC[C@@H](c2ccncc2NC(=O)c2ccc(F)c(-c3cc(O)ccc3F)n2)C1` [Example 33, N-(4-((1R,3S)-3-aminocyclohexyl)pyridin-3-yl)-5-fluoro-6-(2-fluoro-5-hydroxyphenyl)picolinamide], the IC50 at Pim3 kinase was 3 nM; on Pim1 kinase, 1 nM.

Consider `N[C@H]1CCC[C@@H](c2ccncc2NC(=O)c2nc(-c3cc(O)ccc3F)ccc2F)C1` [Example 34, N-(4-((1R,3S)-3-aminocyclohexyl)pyridin-3-yl)-3-fluoro-6-(2-fluoro-5-hydroxyphenyl)picolinamide], for which the values for the half-inhibitory concentration (IC50) on Pim3 kinase and on Pim1 kinase were 6 nM and 4 nM, respectively.

Regarding `C[C@@H]1C[C@H](N)C[C@H](c2ccncc2NC(=O)c2cccc(-c3cc(O)ccc3F)n2)C1` [Example 35, N-(4-((1R,3S,5S)-3-amino-5-methylcyclohexyl)pyridin-3-yl)-6-(2-fluoro-5-hydroxyphenyl)picolinamide], the IC50 at Pim3 kinase is 3 nM; at Pim1 kinase, 1 nM.

Turning to `C[C@@H]1C[C@H](N)C[C@H](c2ccncc2NC(=O)c2cccc(-c3ccc(O)cc3F)n2)C1` [Example 37, N-(4-((1R,3S,5S)-3-amino-5-methylcyclohexyl)pyridin-3-yl)-6-(2-fluoro-4-hydroxyphenyl)picolinamide], the IC50 was 5 nM on Pim3 kinase and 2 nM at Pim1 kinase.

Turning to `C[C@@H]1C[C@H](N)C[C@H](c2ccncc2NC(=O)c2ccc(F)c(-c3ccc(O)cc3F)n2)C1` [Example 38, N-(4-((1R,3S,5S)-3-amino-5-methylcyclohexyl)pyridin-3-yl)-5-fluoro-6-(2-fluoro-4-hydroxyphenyl)picolinamide], the IC50 at Pim3 kinase came to 3 nM; on Pim1 kinase, 1 nM.

As a reminder, the IC50 is the concentration that inhibits the measured activity by half.
